These results are taken from US3971737A, “[2-Methyl-Ala^6 ]LRH” (American Home Products Corporation, priority 1975, dated 1976).

For assay [1], the system named is Sprague-Dawley rats (pregnancy). The settings on record: found by Alan Corbin (copending application Ser. No. 561,524), cited from earlier work.
Assay [2] deals with luteinizing hormone (LH) in the blood serum of ovariectomized rats. The experiment in a line: LH release in ovariectomized rats pretreated with estradiol and progesterone; serum LH by radioimmunoassay. The assay is classed as in vivo, rat. As to the method: This fact was established, in vivo, by measuring the increase of LH (before and after administration of [2-methyl-Ala^6 ]LRH) in the blood serum of ovariectomized rats pretreated with estradiol and progesterone according to the procedure of Schally et al., J. Biol. Chem. 246, 7230 (1971). The LH concentration in the blood serum was determined by radioimmunoassy according to the procedure of Berson et al., Metabolism 13, 1135 (1964). The results of this test are as follows: Dose nanograms ng LH/ml Serum % Dif- (ng) Animal No. Pre Post erence ______________________________________ 10 1 404.92 932.87 […] 10 2 541.37 1062.03 96.17 10 3 441.25 1568.03 255.43 10 4 459.07 1082.72 135.85 10 5 759.11 1681.84 111.52 No. of observations 5 5 5 Mean 523.34 1265.56 145.87 Standard error 70.34 150.08 28.28 T-value 5.1586 P-value 0.0080 ______________________________________

Several values for one entry are separate records, joined by “and”; a condition that tells them apart may be missing. Identical values can stand only once. Entries after “also recorded” stand apart in the source; their conditions may differ.

Turning to `CC(C)C[C@H](NC(=O)C(C)(C)NC(=O)[C@H](Cc1ccc(O)cc1)NC(=O)[C@H](CO)NC(=O)[C@H](Cc1c[nH]c2ccccc12)NC(=O)[C@H](Cc1c[nH]cn1)NC(=O)[C@@H]1CCC(=O)N1)C(=O)N[C@@H](CCCNC(=N)N)C(=O)N1CCC[C@H]1C(=O)NCC(N)=O` [[2-methyl-Ala^6]LRH, L-(5-oxoprolyl)-L-histidyl-L-tryptophyl-L-seryl-L-tyrosyl-2-methylalanyl-L-leucyl-L-arginyl-L-prolylglycinamide], the pregnancies prevented in assay [1] (500 micrograms per day) is recorded as 100%. For the same compound, in assay [1], the “claudogenic/interceptive activity (in words)” value is recorded as “active claudogenic/interceptive agent”. Further, in assay [2] (dose 10 ng, mean of 5 ovariectomized, estradiol/progesterone-pretreated rats, after administration (pre mean 523.34), standard error 150.08), the “ng LH/ml Serum, Post (Mean)” value is given as 1265.56 ng LH/ml. Besides, the “% Difference of serum LH, pre vs post (Mean)” value in assay [2] (dose 10 ng, mean of 5 rats, standard error 28.28, P-value 0.0080) stood at 145.87%. In addition, in assay [2] (dose 10 ng, single animals 1 to 5 in order), the “% Difference of serum LH, pre vs post (individual animals No. 1-5)” value was 255.43% and 135.85% and 111.52% and 103.38% and 96.17%. For the same compound, in assay [2] (dose 10 ng, single animals 1 to 5 in order, after administration), the “ng LH/ml Serum, Post (individual animals No. 1-5)” value was 932.87 ng LH/ml and 1062.03 ng LH/ml and 1568.03 ng LH/ml and 1082.72 ng LH/ml and 1681.84 ng LH/ml. Further, the “LH-releasing / LRH agonist activity (in words)” value in assay [2] (in vivo, ovariectomized rats pretreated with estradiol and progesterone) was “active releaser of luteinizing hormone (LH); also recorded: active LRH agonist”.
